In US8426405B2, “Thiazopyrimidinones and uses thereof” (priority 2008, dated 2013):

Tests used:
HIV integrase wild type = target: T1, HIV integrase wild type (Human immunodeficiency virus type 1 group M subtype B, UniProt P04585); experiment: Strand transfer assay (enzyme assay), WT; format: biochemical, HIV-1
T1 construct: The integrase coding region was then subject to PCR and cloned into a bacterial expression vector; made in house
From the text: (§1) HIV integrase was mutated within a shuttle vector (pGEM) containing the majority of the HIV-1 gag and pol sequence using site directed mutagenesis to generate integrase sequences that have been published as conferring resistance to published integrase inhibitors. These include, but are not limited to, mutations such as Q148K. The integrase coding region was then subject to PCR and cloned into a bacterial expression vector. The specific introduction of desired mutation(s) was confirmed by sequence analysis. Proteins were expressed, purified and used in strand transfer assays.
(§2) A strand transfer assay procedure similar to that published (Ovenden et al. Phytochemistry. 2004 December; 65(24):3255-9.) is used. Briefly, 400 ng of the enzyme, wild type or drug resistant mutant, is mixed with the compound to be tested and incubated with 30 nM substrate DNA. The substrate DNA is designed to mimic HIV DNA termini that has undergone 3′end processing, and consists of the annealed U5 LTR sequence oligonucleotides tagged with Digoxigenin (DIG; 5′-[…]-DIG-3′) or biotin (5′-Bio-[…]-3′) so that each substrate has either a DIG or Bio tag on opposite strands. Reactions are carried out for 1 hr at 37° C. Products generated as a result of strand transfer activity are bound to streptavidin plates and detected using anti-DIG-alkaline phosphatase conjugate and p-nitro phenyl phosphate substrate.

[1] = target: T2, HIV integrase G140S/Q148H (Human immunodeficiency virus type 1 group M subtype B, UniProt P04585, G1287S/Q1295H); experiment: Strand transfer assay (enzyme assay), G140S/Q148H; format: biochemical, HIV-1
T2 construct: The integrase coding region was then subject to PCR and cloned into a bacterial expression vector; made in house
From the text: as §1, §2

HIV integrase E92Q/N155H = target: T3, HIV integrase E92Q/N155H (Human immunodeficiency virus type 1 group M subtype B, UniProt P04585, E1239Q/N1302H); experiment: Strand transfer assay (enzyme assay), E92Q/N155H; format: biochemical, HIV-1
T3 construct: The integrase coding region was then subject to PCR and cloned into a bacterial expression vector; made in house
From the text: as §1, §2

[2] = test system: HIV variant T661 S153Y in integrase; experiment: Phenosense (PhenoScreen) assay, T661 S153Y; format: cell-based
From the text: (§3) Monogram Bioscience' PhenoScreen assay allows the evaluation of integrase inhibitors for activity against a variety of HIV variants. The assay uses virus generated from 2 DNA constructs; one containing the HIV LTR, gag and pol regions, as well as a luciferase reporter gene in place of the viral envelope genes, and a second DNA construct containing the amphotrophic murine leukemia virus (A-MLV) envelope gene required to pseudotype virions and render them capable of entry into a target cell. Viruses generated using these constructs by transfection into a producer cell line such as 293T are capable of one-round of infection only. Successful integration events are directly proportional to the levels of luciferase expression 48 h after infection.
(§4) The viral variants chosen by Avexa Ltd to screen their in-house integration inhibitors against consist of mutations within the viral integrase enzyme known to confer resistance to a number of known integration inhibitors published in the literature. In particular, the viral variants containing the Q148H/G140S double mutation in integrase, and the N155H/E92Q double mutation in integrase, represent two of the more common viruses identified to arise in patients that are failing treatment with Isentress (Raltegravir, MK-0518).

[3] = test system: HIV variant Y143R in integrase; experiment: Phenosense (PhenoScreen) assay, Y143R; format: cell-based
From the text: as §3, §4

[4] = test system: HIV variant T125K F121Y in integrase; experiment: Phenosense (PhenoScreen) assay, T125K F121Y; format: cell-based
From the text: as §3, §4

HIV WT = experiment: Phenosense (PhenoScreen) assay, WT; format: cell-based; conditions: wild type HIV, luciferase 48 h after infection
From the text: as §3, §4

[5] = test system: HIV variant N155H/E92Q double mutation in integrase; experiment: Phenosense (PhenoScreen) assay, E92Q N155H; format: cell-based
From the text: as §3, §4

[6] = test system: HIV variant Q148H/G140S double mutation in integrase; experiment: Phenosense (PhenoScreen) assay, G140S Q148H; format: cell-based
From the text: as §3, §4

Row | SMILES | Enzyme WT (HIV integrase wild type) | Enzyme G140S/Q148H [1] | Enzyme E92Q/N155H (HIV integrase E92Q/N155H) | Phenosense assay T661 S153Y [2] | Phenosense assay Y143R [3] | Phenosense assay T125K F121Y [4] | Phenosense assay WT (HIV WT) | Phenosense assay E92Q N155H [5] | Phenosense assay G140S Q148H [6]
1 | Cc1cn2c(=O)c(O)c(-c3ncc(Cc4ccc(Cl)c(Cl)c4)s3)nc2s1 | +++ (+++ indicates value between 0.001 μM and 1 μM) | +++ (+++ indicates value between 0.001 μM and 1 μM) | ++ (++ indicates value between 1 μM and 10 μM) |  |  |  |  |  | 
2 | Cc1cn2c(=O)c(O)c(-c3ncc(Cc4ccc(F)c(Cl)c4)s3)nc2s1 | +++ (+++ indicates value between 0.001 μM and 1 μM) | ++ (++ indicates value between 1 μM and 10 μM) | ++ (++ indicates value between 1 μM and 10 μM) |  |  |  |  |  | 
3 | Cc1cn2c(=O)c(O)c(-c3ncc(Cc4ccc(F)cc4)s3)nc2s1 |  |  | +++ (+++ indicates value between 0.001 μM and 1 μM) |  |  |  |  |  | 
4 | Cc1cn2c(=O)c(O)c(-c3ncc(Cc4ccc(Cl)cc4)s3)nc2s1 | +++ (+++ indicates value between 0.001 μM and 1 μM) | + (+indicates value greater than 10 μM) | ++ (++ indicates value between 1 μM and 10 μM) |  |  |  |  |  | 
5 | Cc1cn2c(=O)c(O)c(C(=O)NCc3ccc(Cl)c(Cl)c3)nc2s1 | +++ (+++ indicates value between 0.001 μM and 1 μM) |  |  |  |  |  |  |  | 
6 | Cc1cn2c(=O)c(O)c(C(=O)NCc3ccc(F)cc3)nc2s1 | ++ (++ indicates value between 1 μM and 10 μM) |  |  |  |  |  |  |  | 
7 | CN1CCN(Cc2cn3c(=O)c(O)c(C(=O)NCc4ccc(Cl)c(Cl)c4)nc3s2)CC1 | +++ (+++ indicates value between 0.001 μM and 1 μM) |  |  | ++ (++ indicates value between 1 μM and 10 μM) | +++ (+++ indicates value between 0.001 μM and 1 μM) | + (+indicates value greater than 10 μM) | +++ (+++ indicates value between 0.001 μM and 1 μM) | + (+indicates value greater than 10 μM) | + (+indicates value greater than 10 μM)
8 | O=C(NCc1ccc(Cl)c(Cl)c1)c1nc2sc(CN3CCOCC3)cn2c(=O)c1O | +++ (+++ indicates value between 0.001 μM and 1 μM) |  |  | + (+indicates value greater than 10 μM) | +++ (+++ indicates value between 0.001 μM and 1 μM) | + (+indicates value greater than 10 μM) | +++ (+++ indicates value between 0.001 μM and 1 μM) | + (+indicates value greater than 10 μM) | + (+indicates value greater than 10 μM)
9 | O=C(NCc1ccc(F)cc1)c1nc2sc(CN3CCOCC3)cn2c(=O)c1O | ++ (++ indicates value between 1 μM and 10 μM) |  |  | + (+indicates value greater than 10 μM) | ++ (++ indicates value between 1 μM and 10 μM) | + (+indicates value greater than 10 μM) | ++ (++ indicates value between 1 μM and 10 μM) | + (+indicates value greater than 10 μM) | + (+indicates value greater than 10 μM)
10 | Cc1csc2nc(C(=O)NCc3ccc(Cl)c(Cl)c3)c(O)c(=O)n12 | +++ (+++ indicates value between 0.001 μM and 1 μM) |  |  | + (+indicates value greater than 10 μM) | +++ (+++ indicates value between 0.001 μM and 1 μM) | + (+indicates value greater than 10 μM) | +++ (+++ indicates value between 0.001 μM and 1 μM) | + (+indicates value greater than 10 μM) | + (+indicates value greater than 10 μM)
11 | CC(C)c1cn2c(=O)c(O)c(C(=O)NCc3ccc(Cl)c(Cl)c3)nc2s1 | +++ (+++ indicates value between 0.001 μM and 1 μM) |  |  | ++ (++ indicates value between 1 μM and 10 μM) | +++ (+++ indicates value between 0.001 μM and 1 μM) | + (+indicates value greater than 10 μM) | +++ (+++ indicates value between 0.001 μM and 1 μM) | + (+indicates value greater than 10 μM) | + (+indicates value greater than 10 μM)
